Laboratory results: patent publication US20260207459A1, “SUGARCANE DERIVED SEMI-SYNTHETIC COSMETIC INGREDIENTS, METHODS OF PRODUCTION THEREOF, AND PERSONAL CARE PRODUCTS DERIVED THEREFROM” (AMYRIS, INC., priority 2023, published 2026)
Each block holds one molecule with its values, some of them ahead of it.

Key:
[1] = Surface tension by pendant drop; type: physicochemical; details: for Surface tension: Kruss DSA 100, pendant drop; for surface tension (comparison in words): pendant drop shape analysis, FIG. 4
Method: The surface tension of a material in beauty and personal care (B&PC) ingredients accounts for many of the sensory attributes. The lower the surface tension of a material the better is the material's spreadability, slip, glide, and lubricity.
(§1) Example 9: Wetting on Hydrophobic-PTFE and Hydrophilic-Glass Slide Substrates by Static Contact Angle and Surface Tension by Pendant Drop Shape Analysis
(§2) The wetting values (on hydrophobic-PTFE and on hydrophilic-glass slides) were measured and compared for amodimethicone, LEX FEEL (diheptyl succinate), non-redistilled HDD, distilled HDD, PROTOL (mineral oil), RUDOL (mineral oil), ERVOL (mineral oil), and squalane. […] The lower surface tension of HDD can be translated to better spreading and glide in formulations and position it comparably with mineral oils with similar viscosities and LEX FEEL 350.
(§3) Measurement of surface tension of liquids: A Kruss DSA 100 was employed using the pendant drop method. Prior to the measurement, surface tension of the water was tested as a standard with an expected surface tension of 72 mN/m at 25° C. Then, a drop of the tested liquid was pushed through a 0.514 mm needle of a micro syringe and the surface tension was calculated using inbuilt software. The result of the measurement is an average of at least 3 measurements. Static contact angle measurement (wetting): To measure the contact angle, a Kriss DSA 100 and the sessile drop method were used. A glass substrate was used for the measurements. To measure the contact angle on the substrate, a single drop was deposited onto the substrate from a 0.514 mm needle of a micro syringe. Then, drop shape and contact angle were analyzed using inbuilt software. The result of the measurement was the average of at least 3 measurements. To ensure that the substrate is prepared well, it was cleaned with non-polar hexane, THF, and polar acetone. To ensure that the glass substrate was clean, a drop of water was deposited on its surface. Gloss measurement: To measure the gloss, 2 mL of material was drawn downed on a glass substrate. Then glass was placed over a black matte surface and gloss was measured with a BYK micro-TRI-gloss glossmeter.

[2] = Gloss measurement (glossmeter); type: physicochemical
Method: Gloss is a very desirable property in B&PC products. Gloss was measured at 20 deg.
Tested dimethicones have the lowest gloss.
as §3

[3] = Static contact angle (wetting) on glass / PTFE; type: physicochemical; details: for Water contact angle: static contact angle on glass
Method: Static water contact angle is another indication of material spreading and wetting.
as §1, §2, §3

[4] = Viscosity (capillary viscometer / rheometer); type: physicochemical; details: for Viscosity: at 25° C., ARES G2 rheometer
Method: The viscosity, gloss, surface tension, and wetting were also calculated for farnesyl HH-farnesoate (Compound (I-C)) and the results are shown in Table 4. The properties of Table 4 were determined as follows: Measurement of dynamic viscosity using rheometer: Using a ARES G2 rheometer, the viscosity of the samples were measured using 25 mm plate clamps with a gap size about 0.5 mm, strain 1%, frequency range 1-500 rad/s, and a temperature of about 25° C.

[5] = In vitro skin permeation, Franz diffusion cell system; type: in vitro ADME, human; details: for Total accumulated dose passed through the skin into the reservoir / Total accumulated dose in Dermis / Total accumulated dose in Epidermis: 1.0 wt % in squalane, 5 μl, nominal 90.91 μg/cm^2; for penetration to the dermis compared with THDA: 24 hour time point, cadaver skin; for Total accumulated dose in Dermis / Total accumulated dose in Epidermis: measured at 24 hours
Method: The rate and extent of in vitro skin permeation of compounds tetrahexydecyl ascorbate (THDA, shown below), di(hexahydrofarnesyl) ascorbate (Compound (II-A)), tri(hexahydrofarnesyl) ascorbate (Compound (II-B)), and tetra(hexahydrofamesyl) ascorbate (Compound (II-C)) was measured into and through cadaver skin using a Franz diffusion cell system. THDA is a Vitamin C ester commonly used in cosmetic formulations.
Flux was measured over a period of 24 hours after application of the formulations. At the end of the 24 hour study, the skin was washed, tapestripped and split into epidermal and dermal compartments. The compounds were then extracted from the skin compartments and the compound concentration was measured in these compartments along with the receptor fluid aliquots. The formulations were chosen to determine the effect of the formulation composition and compound concentration on the rate of delivery of the compounds into and through the skin. In vitro skin permeation measurements with Franz-type diffusion cells provide data that is informative relative to in vivo performance.
To prepare the formulations, the compounds were weighed in a glass vial into which the squalane was added. The ending solution was then vortexed for 1 minute, followed by sonication for 30 minutes.
Intact human cadaver skin was purchased from Science Care. The skin tissue was dermatomed by the tissue bank to a thickness of some 250-500 μm and shipped frozen on dry ice. Upon receipt of the donor skin, the skin pieces were stored at −20° C. until used. Prior to use, the skin pieces were removed from the freezer and allowed to thaw fully at ambient temperature.
The following equipment was used during the course of the study: • 1.) Diffusion cells. 24 diffusion cells with 3.3 ml receptor volume and a […] receptor fluid exposure surface area. • 2.) Stirring Dry Block Heaters. Reacti-Therm #18823 stirring dry block heaters were used to maintain the receptor fluid at 32±0.5° C. with constant stirring throughout the study. • 3.) The analysis was carried out with an Agilent 1260 HPLC with a G6120 MS detector and a G4212B diode array detector.
After the analytical testing was complete, the samples were analyzed using Chemstation software. The areas under the curve (“AUCs”) of the compound peaks were recorded and converted to jig/ml values using a calibration curve developed from the calibration standards' AUC values and known concentration values. The concentrations were then multiplied by the receptor volume (3.3 mL) and divided by the surface area of the skin exposed to the receptor fluid (0.55 cm^2) for an end cumulative amount in μg/cm^2.
For receptor fluid time points greater than 4 hrs, this μg/cm^2 value was corrected for the sample aliquot volumes which were removed to compensate for the dilution caused by replacing the sample volume with fresh buffer solution. As an example, for the second time point at 8 hrs, the dilution factor (300 μl aliquot/3.3 ml receptor volume or 1/11) is multiplied by the g/cm^2 value calculated for the 4 hr time point, the result of which is then added to the μg/cm^2 concentration which is calculated using the 8 hr AUC value.
The receptor fluid consisted of phosphate buffered saline at pH 7.4, sourced from Quality Biologicals, with 0.01 wt % NaN3 (added as a preservative), and lwt % Brij 020 (added as a solubilizing agent). The solubility of the compounds in the receptor fluid was determined to be sufficient to maintain sink conditions throughout the study. After mixing the receptor fluid, the receptor fluid was degassed, filtered through a ZapCap CR 0.2 μm membrane under vacuum, and stirred for an additional 20 minutes under vacuum.
Glass FDCs with a 3.3 ml receiver volume and 0.55 cm^2 diffusional area were used. Once the skin was defrosted and washed as described above the FDCs were prepared as follows: • 1. The receptor wells were filled with degassed receptor fluid using a pipette. • 2. […]

- Surface tension [1]: 27.6 ± 0.2 mN/m
- Surface tension ([1]; listed as Compound I-C): 27.6±0.2 mN/m
- Gloss ([2]; BYK micro-TRI-gloss glossmeter, drawn down on glass): 69.4 ± 2.7
- Wetting (static contact angle) ([3]; sessile drop on glass substrate): 18.5°
- Viscosity [4]: 30 ± 10 cP at 25 °C
- Viscosity ([4]; listed as Compound I-C): 30±10 cP
Molecule: CC(C)CCCC(C)CCCC(C)CCOC(=O)CC(C)CCCC(C)CCCC(C)C (centres unmarked) [Compound (I-C), 3,7,11-trimethyldodecyl 3,7,11-trimethyldodecanoate]

- Total accumulated dose passed through the skin into the reservoir ([5]; 4 hrs): 0.17 μg/cm^2
- Total accumulated dose passed through the skin into the reservoir ([5]; 8 hrs): 0.18 μg/cm^2
- penetration to the dermis compared with THDA [5]: better penetration to the dermis
- Total accumulated dose passed through the skin into the reservoir ([5]; 24 hrs): 0.20 μg/cm^2
- Total accumulated dose in Dermis [5]: 0.85 μg/cm^2
- Total accumulated dose in Epidermis [5]: 9.28 μg/cm^2
Molecule: CC(C)CCCC(C)CCCC(C)CC(=O)OC[C@H](OC(=O)CC(C)CCCC(C)CCCC(C)C)C1OC(=O)C(O)=C1O (stereo partly drawn) [Compound (II-A), (1S)-1-(3,4-dihydroxy-5-oxo-2,5-dihydrofuran-2-yl)ethane-1,2-diyl bis(3,7,11-trimethyldodecanoate)]

- Total accumulated dose passed through the skin into the reservoir ([5]; 4 hrs): 0.00 μg/cm^2
- Total accumulated dose passed through the skin into the reservoir ([5]; 8 hrs): 0.00 μg/cm^2
- penetration to the dermis compared with THDA [5]: better penetration to the dermis
- Total accumulated dose passed through the skin into the reservoir ([5]; 24 hrs): 0.00 μg/cm^2
- Total accumulated dose in Dermis [5]: 1.37 μg/cm^2
- Total accumulated dose in Epidermis [5]: 4.41 μg/cm^2
Molecule: CC(C)CCCC(C)CCCC(C)CC(=O)OC[C@H](OC(=O)CC(C)CCCC(C)CCCC(C)C)C1OC(=O)C(O)=C1OC(=O)CC(C)CCCC(C)CCCC(C)C (stereo partly drawn) [Compound (II-B), (1S)-1-(4-hydroxy-5-oxo-3-((3,7,11-trimethyldodecanoyl)oxy)-2,5-dihydrofuran-2-yl)ethane-1,2-diyl bis(3,7,11-trimethyldodecanoate)]

- Total accumulated dose passed through the skin into the reservoir ([5]; 4 hrs): 0.05 μg/cm^2
- Total accumulated dose passed through the skin into the reservoir ([5]; 8 hrs): 0.03 μg/cm^2
- Total accumulated dose passed through the skin into the reservoir ([5]; 24 hrs): 0.04 μg/cm^2
- Total accumulated dose in Dermis [5]: 0.01 μg/cm^2
- Total accumulated dose in Epidermis [5]: 1.02 μg/cm^2
Molecule: CC(C)CCCC(C)CCCC(C)CC(=O)OC[C@H](OC(=O)CC(C)CCCC(C)CCCC(C)C)C1OC(=O)C(OC(=O)CC(C)CCCC(C)CCCC(C)C)=C1OC(=O)CC(C)CCCC(C)CCCC(C)C (stereo partly drawn) [Compound (II-C), 2-((1S)-1,2-bis((3,7,11-trimethyldodecanoyl)oxy)ethyl)-5-oxo-2,5-dihydrofuran-3,4-diyl bis(3,7,11-trimethyldodecanoate)]

- Surface tension, mN/m [1]: 26.1 mN/m
- gloss value (comparison in words) [2]: somewhat lower gloss value
- Gloss ([2]; measured at 20 deg): 65.7
- Water contact angle [3]: 30.9 °
- Viscosity @20 C., cP [4]: 23.3 cP
Molecule: CC(C)CCCC(C)CCCC(C)CCCCC(C)CCCC(C)CCCC(C)C (centres unmarked) [Squalane, squalane, reference compound]

- Total accumulated dose passed through the skin into the reservoir ([5]; 4 hrs): 0.00 μg/cm^2
- Total accumulated dose passed through the skin into the reservoir ([5]; 8 hrs): 0.00 μg/cm^2
- Total accumulated dose passed through the skin into the reservoir ([5]; 24 hrs): 0.00 μg/cm^2
- Total accumulated dose in Dermis [5]: 0.18 μg/cm^2
- Total accumulated dose in Epidermis [5]: 25.78 μg/cm^2
Molecule: CCCCCCCCC(CCCCCC)C(=O)OCC(OC(=O)C(CCCCCC)CCCCCCCC)C1OC(=O)C(OC(=O)C(CCCCCC)CCCCCCCC)=C1OC(=O)C(CCCCCC)CCCCCCCC (centres unmarked) [Tetrahexydecyl ascorbate, tetrahexydecyl ascorbate, reference compound]

Molecule: hexahydrofarnesene dimer [HDD Glycotech]
- surface tension (comparison in words) ([1]; listed as Non-redistilled HDD): highest values of surface tension
- viscosity by rheology [4]: 68.2

Molecule: hexahydrofarnesene dimer [HDD]
- Surface tension, mN/m [1]: 24.5 mN/m
- surface tension (comparison in words) ([1]; listed as Distilled HDD): lower surface tension value
- Gloss ([2]; measured at 20 deg): 70.6
- Water contact angle [3]: 19.8 °
- Viscosity @20 C., cP [4]: 61.5 cP
- viscosity by rheology [4]: 61.5
